Several values for one entry are separate records, joined by “and”; a condition that tells them apart may be missing. Equal values may be shown once. Read-outs that look alike come from different tables or passages of the source.
Experiments:
human CB1 = conditions: one per compound, cited from earlier work
human CB1 receptor [1] = target: T1, human CB1 receptor (Homo sapiens, UniProt P21554); assay: biochemical; assay type: binding; set-up: purchased Merck HTS019M; host or cells: Chem-1 cells
Description: Compounds selected for the in vitro binding assay from the first iteration of VS were purchased via MolPort, SIA, Riga, Latvia and Biopurify Phytochemicals Ltd., Chengdu, China. Compounds from the second iteration were purchased from MolPort, SIA, Riga, Latvia and Chemspace, SIA, Riga, Latvia (Supporting Information S3). […] Membranes from cells overexpressing the human CB1 receptor (ChemiScreen CB1 Cannabinoid Receptor Membrane Preparation, cat. no. HTS019M) as well as MgCl2, CaCl2, Trizma Base, NaCl, polyethylenimine (PEI) and dimethyl sulfoxide (DMSO) were purchased from Merck (USA). Bovine serum albumin (BSA) was obtained from Pol-Aura (Poland).
Compounds were dissolved in 50% DMSO and added to the reaction mixture at 10 concentrations equally spaced on a log scale (10^–10 to 10^–4.5 M). The final DMSO concentration was 5%. […] The reaction mixture (500 μL) was incubated for 1.5 h at 30°C . Before harvesting, Whatman GF/B Filter Paper (Brandel, USA) was presoaked with 0.33% PEI buffer for 30 min. and then washed with 2 ml of 50 mM Tris-HCl buffer (pH = 7.4) and 0.5% BSA to minimize non-specific binding. The reaction was terminated by depositing the samples onto GF/B filter paper with the Brandel M-24 Cell Harvester (Brandel, USA). Samples were then rapidly washed 3 times with 2 ml of ice-cold wash buffer (50 mM Tris-HCl pH 7.4, 500 mM NaCl) to separate the bound radioligand from free. Filters were then air-dried for 1 h at 60°C . After drying, filter discs were placed on a flexible 24-well plate and 500 μL of EcoScint-20 scintillant was added to each well. Plates were counted (2 min. per well) in a Trilux MicroBeta^2 2450 scintillation counter (Perkin Elmer, USA). Data were analyzed with GraphPad Prism 5.0 software.[89]

human CB1 receptor [2] = target: T1, human CB1 receptor; assay type: biochemical; conditions: in words
[3] = set-up: method as in MedChemExpress product data sheet; conditions: ref MedChemExpress product data sheet, cited from earlier work
human CB1 receptor [4] = target: T1, human CB1 receptor; assay: biochemical
Procedure: Ten compound concentrations equally spaced on a log scale (10^–3 to 10^–9 M) were incubated in triplicate with membrane preparations from CHO-K1 cells expressing the human CB1 receptor (5 μg per well) (Perkin Elmer, cat. no. ES-110-M400UA) in an assay buffer containing 50 mM Tris-HCl, pH = 7.4, 1 mM EGTA, 3 mM MgCl2, 100 mM NaCl and 30 μM GDP) in the presence of 0.08 nM [^35S]GTPγS (specific activity: 1250 Ci/mmole, Perkin Elmer). Non-specific binding was determined with 100 μM of unlabeled GTPγS. […] The final DMSO concentration in the assay was 5%. The reaction mixture was incubated for 90 min. at 30°C . Next, the samples were deposited under vacuum with the FilterMate Harvester® (Perkin Elmer, USA) onto Unifilter® GF/B Plates (Perkin Elmer, USA) presoaked with wash buffer (50 mM Tris-HCl, pH = 7.4). The samples were then rapidly washed with 2 ml of wash buffer. Filter plates were dried for 30 min. at 50 °C and 40 μL of MicroScint PS (Perkin Elmer, USA) scintillation fluid was added to each well. Radioactivity was counted in a Trilux MicroBeta^2 counter (Perkin Elmer, USA). Data were analyzed with GraphPad Prism 5.0 software. Curves were fitted with three-parameter non-linear regression model.

CB1 = conditions: known CB1 ligands; ref 55 (rimonabant), 56 (nabilone), 17 (bazedoxifene); cited from earlier work
[5] = CB1 agonists, Table S8, ref SI (1)-(19)
[6] = CB1 antagonists/inverse agonists, Table S9, ref SI (20)-(38)
[7] = [3H]CP-55,940 displacement, membranes of Chem-1 cells expressing human CB1, read-out: pKi ± SEM (converted)
[8] = CB1 inhibition IC50 (μM, 95% CI)
[9] = CHO-K1 membranes, WIN 55,212-2 (3 μM) as stimulating ligand, read-out: CB1 inhibition pIC50 (converted)
[10] = read-out: CB1 inhibition IC50 (μM, 95% CI)

T1 sequence (P21554 whole entry): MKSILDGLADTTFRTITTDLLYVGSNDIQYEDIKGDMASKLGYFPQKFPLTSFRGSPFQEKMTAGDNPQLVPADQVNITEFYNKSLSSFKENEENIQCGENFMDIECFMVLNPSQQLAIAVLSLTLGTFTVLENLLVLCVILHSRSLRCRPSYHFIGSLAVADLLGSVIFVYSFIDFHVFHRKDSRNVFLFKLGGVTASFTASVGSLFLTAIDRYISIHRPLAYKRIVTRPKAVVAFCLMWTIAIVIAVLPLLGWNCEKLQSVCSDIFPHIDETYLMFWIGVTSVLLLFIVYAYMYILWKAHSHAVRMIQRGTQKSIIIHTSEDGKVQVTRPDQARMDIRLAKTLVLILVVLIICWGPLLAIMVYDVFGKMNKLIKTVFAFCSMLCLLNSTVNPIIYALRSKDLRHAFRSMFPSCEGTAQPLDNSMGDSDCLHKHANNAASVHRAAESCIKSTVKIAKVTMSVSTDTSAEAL

O=S(=O)(CCCC(F)(F)F)Oc1cccc(Oc2cccc3c2C[C@H](CO)C3)c1 [BAY 38-7271]
Ki (human CB1; [5]): 2.91 nM

N#Cc1c(Oc2cccc(OS(=O)(=O)CCCC(F)(F)F)c2)cccc1C(F)(F)F [BAY 59-3074]
Ki (human CB1; [5]): 48.3 nM

Cc1nc2c(-c3ccc(Cl)cc3)n(-c3ccccc3Cl)nc2c(=O)n1CC(F)(F)F [CHEMBL201602]
Ki (human CB1; [6]): 0.6 nM

Cc1c(C(=O)NN2CCCCC2)nn(-c2ccc(Cl)cc2Cl)c1-c1ccc(N)cc1 [CHEMBL349955]
Ki (human CB1; [6]): 81.5 nM

CC(C)N1CCOc2c(nn(-c3ccccc3Cl)c2-c2ccc(Cl)cc2)C1=O [CHEMBL482741]
Ki (human CB1; [6]): 1.3 nM

CCNC1(C(N)=O)CCN(c2cnc(-c3ccc(OCC)cc3)c(-c3ccccc3Cl)n2)CC1 [CHEMBL495891]
Ki (human CB1; [6]): 15 nM

CCNC1(C(N)=O)CCN(c2cnc(-c3ccc(Cl)cc3)c(-c3ccc(Cl)cc3Cl)n2)CC1 [CHEMBL496293]
Ki (human CB1; [6]): 0.91 nM

CCNC1(C(N)=O)CN(c2cnc(-c3ccc(C(F)(F)F)cc3)c(-c3ccnc(Cl)c3)n2)C1 [CHEMBL498783]
Ki (human CB1; [6]): 1.2 nM

Cc1c(-c2cn(-c3ccccc3)cn2)nn(-c2ccccc2Cl)c1-c1ccc(Cl)cc1 [CHEMBL568221]
Ki (human CB1; [6]): 3.8 nM

CCCCCCC(C)(C)c1ccc([C@@H]2C[C@H](O)C[C@@H]3CC[C@H](CO)C[C@H]32)c(O)c1 [CP-55,244]
Ki (human CB1; [5]): 1 nM

CC(C)OC(=O)CCC/C=C\C[C@@H]1[C@@H](/C=C/[C@@H](O)COc2cccc(C(F)(F)F)c2)[C@H](O)C[C@@H]1O [Compound 9, travoprost]
Ki (human CB1 receptor [1]; Ki (μM, 95% CI)): 3.6 µM | Ki (human CB1 receptor [1]; [7]): 3.98 µM | intrinsic activity (human CB1 receptor [2]): antagonists | Solubility ([3]; 10% DMSO >> 40% PEG300 >> 5% Tween-80 >> 45% saline): ≥ 2.08 mg/mL and ≥ 4.16 mM | Solubility ([3]; 10% DMSO >> 90% (20% SBE-β-CD in saline)): ≥ 2.08 mg/mL and ≥ 4.16 mM | Solubility ([3]; 10% DMSO >> 90% corn oil): ≥ 2.08 mg/mL and ≥ 4.16 mM | Solubility in DMSO ([3]; in vitro): ≥ 41.67 mg/mL and ≥ 83.25 mM | IC50 (human CB1 receptor [4]; [8]): 232 µM | IC50 (human CB1 receptor [4]; [9]): 229 µM

COc1cc(O)c2c(=O)cc(-c3ccc(OC)c(-c4c(O)cc(O)c5c(=O)cc(-c6ccc(O)cc6)oc45)c3)oc2c1 [Compound 15, ginkgetin]
Ki (human CB1 receptor [1]; Ki (μM, 95% CI)): 8.6 µM | Ki (human CB1 receptor [1]; [7]): 8.71 µM | intrinsic activity (human CB1 receptor [2]): antagonists | IC50 (human CB1 receptor [4]; [8]): 63 µM

COc1cc(-c2c3cn[nH]c3nc3c2oc2c(O)c(O)ccc23)ccc1OCc1ccc(C(C)C)cc1 [Compound 30]
Ki (human CB1 receptor [1]; Ki (μM, 95% CI)): 0.8 µM | Ki (human CB1 receptor [1]; [7]): 0.851 µM | intrinsic activity (human CB1 receptor [2]): mixed CB1 partial agonist/antagonist | IC50 (human CB1 receptor [4]; [9]): 2.09 µM | Emax (human CB1 receptor [4]; CHO-K1 membranes, read-out: CB1 stimulation Emax (%)): 126 ± 5% | EC50 (human CB1 receptor [4]; CHO-K1 membranes, read-out: CB1 stimulation pEC50 (converted)): 417 nM

COc1ccc([C@@H](CC(=O)NCc2cccc3[nH]ccc23)c2cc3c(cc2O)OCO3)cc1 [Compound 32]
Ki (human CB1 receptor [1]; Ki (μM, 95% CI)): 6.8 µM | Ki (human CB1 receptor [1]; [7]): 6.31 µM | intrinsic activity (human CB1 receptor [2]): antagonists | IC50 (human CB1 receptor [4]; [9]): 33.1 µM | IC50 (human CB1 receptor [4]; [10]): 40 µM

OCCN1CCN(CC/C=C2/c3ccccc3Sc3ccc(C(F)(F)F)cc32)CC1 [Compound 33, Flupentixol]
pKi ± SEM (human CB1 receptor [1]; [3H]CP-55,940 displacement, membranes of Chem-1 cells expressing human CB1): 4.27 ± 0.04 | Ki (human CB1 receptor [1]; read-out: Ki (μM, 95% CI)): 53 µM | Solubility ([3]; 10% DMSO >> 40% PEG300 >> 5% Tween-80 >> 45% saline, listed as Flupentixol dihydrochloride): ≥ 2.5 mg/mL and ≥ 4.93 mM | Solubility ([3]; 10% DMSO >> 90% (20% SBE-β-CD in saline), listed as Flupentixol dihydrochloride): ≥ 2.5 mg/mL and ≥ 4.93 mM | Solubility ([3]; 10% DMSO >> 90% corn oil, listed as Flupentixol dihydrochloride): ≥ 4.93 mM and ≥ 2.5 mg/mL | Solubility in H2O ([3]; in vitro, need ultrasonic, listed as Flupentixol dihydrochloride): 100 mg/mL and 197.07 mM | Solubility in DMSO ([3]; in vitro, listed as Flupentixol dihydrochloride): 33.33 mg/mL and 65.68 mM

COc1ccccc1C(CCNC(C)c1ccc(Cl)cc1)c1ccc(OC(C)C)cc1 (centres unmarked) [Compound 34]
Ki (human CB1 receptor [1]; [7]): 2.69 µM | intrinsic activity (human CB1 receptor [2]): antagonists | IC50 (human CB1 receptor [4]; [9]): 3.72 µM

COc1ccc(-c2cc(-c3ccccc3)cc(-c3ccccc3O)n2)c(OC)c1 [Compound 38]
Ki (human CB1 receptor [1]; [7]): 2.51 µM | intrinsic activity (human CB1 receptor [2]): antagonists | IC50 (human CB1 receptor [4]; [10]): 140 µM

COc1cccc2c1ccn2CCNC(=O)[C@H](Cc1cn(C)c2ccccc12)NC(=O)OC(C)(C)C [Compound 43]
Ki (human CB1 receptor [1]; Ki (μM, 95% CI)): 6.6 µM | intrinsic activity (human CB1 receptor [2]): antagonists | IC50 (human CB1 receptor [4]; [9]): 1.86 µM

CS(=O)(=O)N(c1cc(F)cc(F)c1)C1CN(C(c2ccc(Cl)cc2)c2ccc(Cl)cc2)C1 [Drinabant]
Ki (human CB1; [6]): 11 nM

O=C(c1ccc2c(c1)c1ccccc1n2CCCCCF)c1cccc2ccccc12 [EG-2201]
Ki (human CB1; [5]): 22.4 nM

CCCCCCC(C)(C)c1cc(O)c2c(c1)OC(C)(C)[C@@H]1CC=C(CO)C[C@@H]21 [HU-210]
Ki (human CB1; [5]): 0.06 nM

CN=C(NS(=O)(=O)c1ccc(Cl)cc1)N1C[C@H](c2ccccc2)C(c2ccc(Cl)cc2)=N1 [Ibipinabant]
Ki (human CB1; [6]): 7.8 nM

CC(C)[C@H](N=C(NS(=O)(=O)c1ccc(Cl)cc1)N1C[C@H](c2ccccc2)C(c2ccc(Cl)cc2)=N1)C(N)=O [JD-5037]
Ki (human CB1; [6]): 0.35 nM

CCCCCn1cc(C(=O)c2cccc3ccccc23)c2ccccc21 [JWH-018]
Ki (human CB1; [5]): 9 nM

CCCCCCn1cc(C(=O)c2cccc3ccccc23)cc1-c1ccccc1 [JWH-147]
Ki (human CB1; [5]): 11 nM

CCCCCn1cc(C(=O)c2cccc3ccccc23)cc1-c1ccccc1F [JWH-307]
Ki (human CB1; [5]): 7.7 nM

COC(=O)[C@@H](NC(=O)c1ccc2c(c1)c1ccccc1n2CC1CCCCC1)C(C)(C)C [MDMB-CHMCZCA]
Ki (human CB1; [5]): 5.75 nM

C/C(N)=N\C(=N/S(=O)(=O)c1ccc(C(F)(F)F)cc1)N1C[C@H](c2ccccc2)C(c2ccc(Cl)cc2)=N1 [MRI-1867]
Ki (human CB1; [6]): 2.3 nM

CCCCC/C=C\C/C=C\C/C=C\C/C=C\CCCCOC(CO)CO [Noladin ether]
Ki (human CB1; [5]): 25 nM

O=C(NCc1ccc(F)cc1)c1ccc(S(=O)(=O)n2cc(N3CCCCC3)c3ccccc32)cc1 [PipISB]
Ki (human CB1; [6]): 1.5 nM

CCc1c(C(=O)NN2CCCCC2)nn(-c2ccc(Cl)cc2Cl)c1-c1ccc(Br)cc1 [Surinabant]
Ki (human CB1; [6]): 3.5 nM

C[C@H](NC(=O)C(C)(C)Oc1ccc(C(F)(F)F)cn1)[C@@H](Cc1ccc(Cl)cc1)c1cccc(C#N)c1 [Taranabant]
Ki (human CB1; [6]): 0.13 nM

CCCCCn1cc(C(=O)C2C(C)(C)C2(C)C)c2ccccc21 [UR-144]
Ki (human CB1; [5]): 29 nM

CC1(C)C(C(=O)c2cn(CCCCCF)c3ccccc23)C1(C)C [XLR-11]
Ki (human CB1; [5]): 24 nM

Cc1c(-c2ccc(O)cc2)n(Cc2ccc(OCCN3CCCCCC3)cc2)c2ccc(O)cc12 [bazedoxifene]
pKi (CB1): 6.1[17]

CCCCCCC(C)(C)c1cc(O)c2c(c1)OC(C)(C)C1CCC(=O)CC21 (centres unmarked) [nabilone]
pKi (CB1): 8.7[56]
